Measured values from ChEMBL document CHEMBL1159027, “Microcolins A and B, new immunosuppressive peptides from the blue-green alga Lyngbya majuscula” (J Nat Prod, 1992).

Key:
Lymphocyte = assay: Immunosuppressive activity in mouse lymphocyte assessed as suppression of two-way mixed reaction; type: functional, cell-based
[1] = Toxicity in mouse lymphocytes; type: cell-based, Lymphocyte; details: read-out: TC50 (the source's name)

| SMILES | EC50 (Lymphocyte) [nM] | CC50 [1] [nM] |
| --- | --- | --- |
| CCCC[C@@H](C)C[C@@H](C)C(=O)N(C)[C@@H](CC(C)C)C(=O)N[C@H](C(=O)N(C)[C@H](C(=O)N1C[C@@H](O)C[C@H]1C(=O)N1C(=O)C=C[C@@H]1C)C(C)C)[C@H](C)OC(C)=O [MICROCOLIN A] | 1.5 | 22.6 |
| CCCC[C@@H](C)C[C@@H](C)C(=O)N(C)[C@@H](CC(C)C)C(=O)N[C@H](C(=O)N(C)[C@H](C(=O)N1CCC[C@H]1C(=O)N1C(=O)C=C[C@@H]1C)C(C)C)[C@H](C)OC(C)=O [MICROCOLIN B] | 42.7 | 191 |
